Reference: publication PMC3792216 (Biomolecules & Therapeutics, 2012)

Experiments:
[1] = target: estrogen receptor beta (hERβ) (Homo sapiens, UniProt Q92731); test: competitive displacement of [3H]-E2 radioligand, filter binding
[2] = target: estrogen receptor alpha (hERα) (Homo sapiens, UniProt P03372); test: as above
Chain of estrogen receptor alpha (hERα) (P03372 whole entry): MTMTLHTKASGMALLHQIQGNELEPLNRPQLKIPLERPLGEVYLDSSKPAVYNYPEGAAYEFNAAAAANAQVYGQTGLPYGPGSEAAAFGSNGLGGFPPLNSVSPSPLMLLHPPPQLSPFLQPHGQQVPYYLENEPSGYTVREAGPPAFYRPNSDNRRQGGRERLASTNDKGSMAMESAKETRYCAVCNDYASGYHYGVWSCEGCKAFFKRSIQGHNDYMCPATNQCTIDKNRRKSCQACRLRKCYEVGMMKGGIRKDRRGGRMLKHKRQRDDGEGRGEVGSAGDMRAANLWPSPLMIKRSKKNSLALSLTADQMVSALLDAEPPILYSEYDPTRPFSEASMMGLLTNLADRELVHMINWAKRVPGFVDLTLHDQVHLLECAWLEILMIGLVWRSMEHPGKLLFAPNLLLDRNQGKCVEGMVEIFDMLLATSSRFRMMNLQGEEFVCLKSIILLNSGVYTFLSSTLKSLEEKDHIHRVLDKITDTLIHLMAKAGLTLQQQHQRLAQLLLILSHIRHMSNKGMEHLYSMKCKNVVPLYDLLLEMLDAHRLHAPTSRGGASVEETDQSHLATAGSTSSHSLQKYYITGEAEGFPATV

Chain of estrogen receptor beta (hERβ) (Q92731 whole entry): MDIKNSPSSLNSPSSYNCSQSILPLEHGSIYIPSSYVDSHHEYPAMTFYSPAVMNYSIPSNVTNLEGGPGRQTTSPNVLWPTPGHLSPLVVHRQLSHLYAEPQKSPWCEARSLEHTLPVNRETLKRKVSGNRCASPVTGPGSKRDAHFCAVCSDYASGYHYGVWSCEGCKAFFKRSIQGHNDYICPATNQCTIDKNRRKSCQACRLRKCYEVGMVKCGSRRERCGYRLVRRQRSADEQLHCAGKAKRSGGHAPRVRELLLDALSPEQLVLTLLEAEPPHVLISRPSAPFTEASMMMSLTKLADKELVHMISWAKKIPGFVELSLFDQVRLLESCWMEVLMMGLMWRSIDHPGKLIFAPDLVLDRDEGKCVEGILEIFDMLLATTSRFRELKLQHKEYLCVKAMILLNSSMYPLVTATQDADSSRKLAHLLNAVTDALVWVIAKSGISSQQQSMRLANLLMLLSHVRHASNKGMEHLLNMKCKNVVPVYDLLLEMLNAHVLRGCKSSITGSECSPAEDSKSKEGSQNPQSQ

Question: How did the IC50 [1] turn out when `CC(C)=CCc1cc2c(cc1O)O[C@H](c1ccc(O)cc1)CC2=O` [bavachin] was run?
Answer: 38 µM

Question: What about the IC50 [2] of the same compound?
Answer: 65.7 µM
